Reference: ChEMBL document CHEMBL1201862, “PubChem BioAssay data set” (2004)
The source made the active and inactive calls.

How the values were obtained:
Cytochrome P450 2D6 = Cytochrome P450 2D6 (Homo sapiens, UniProt P10635);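 note: CYP2D6 member of a cytochrome P450 panel assay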
Escherichia coli = assay: microbe, parasite or virus in culture
[1] = target: Delta-type opioid receptor (Homo sapiens, UniProt P41143); assay: Counterscreen for agonists of heterodimerization of the mu 1 (OPRM1) and delta 1 (OPRD1) opioid receptors: Luminescence-based cell-based high throughput dose response assay to identify agonists of OPRD1 homodimerization. [Related pubchem assays (depositor defined):AID504326, AID504355, AID504692, AID504904, AID504905]; format: functional
Chain of Delta-type opioid receptor (P41143 whole entry): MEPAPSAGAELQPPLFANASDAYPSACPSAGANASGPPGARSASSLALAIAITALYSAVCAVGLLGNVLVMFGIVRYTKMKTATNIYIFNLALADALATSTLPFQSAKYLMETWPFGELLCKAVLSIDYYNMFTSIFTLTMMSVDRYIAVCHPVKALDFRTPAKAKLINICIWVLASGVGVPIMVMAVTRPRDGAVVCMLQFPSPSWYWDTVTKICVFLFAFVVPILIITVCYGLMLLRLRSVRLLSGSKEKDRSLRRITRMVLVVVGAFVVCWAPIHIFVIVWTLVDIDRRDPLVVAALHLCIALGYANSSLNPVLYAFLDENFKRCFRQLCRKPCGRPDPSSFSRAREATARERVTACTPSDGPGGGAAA

Mu-type opioid receptor = Mu-type opioid receptor (Homo sapiens, UniProt P35372); assay: Counterscreen for agonists of heterodimerization of the mu 1 (OPRM1) and delta 1 (OPRD1) opioid receptors: Luminescence-based cell-based high throughput dose response assay to identify agonists of OPRM1 homodimerization.; format: functional;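 note: U2OS cells expressing OPRM1 and beta-arrestin as split beta-galactosidase partners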
Chain of Mu-type opioid receptor (P35372 whole entry): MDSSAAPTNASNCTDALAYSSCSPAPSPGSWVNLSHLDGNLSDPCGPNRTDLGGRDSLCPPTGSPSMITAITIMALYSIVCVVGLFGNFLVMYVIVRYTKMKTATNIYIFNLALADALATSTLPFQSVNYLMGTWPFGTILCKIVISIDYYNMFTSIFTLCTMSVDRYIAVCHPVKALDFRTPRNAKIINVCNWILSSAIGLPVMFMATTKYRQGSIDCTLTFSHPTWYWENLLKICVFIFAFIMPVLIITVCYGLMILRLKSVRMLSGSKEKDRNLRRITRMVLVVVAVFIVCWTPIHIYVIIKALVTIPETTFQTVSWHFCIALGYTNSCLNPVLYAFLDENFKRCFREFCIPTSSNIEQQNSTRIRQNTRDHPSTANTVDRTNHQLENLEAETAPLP

[2] = target: 5-hydroxytryptamine receptor 5A (Homo sapiens, UniProt P47898); assay: Counterscreen for agonists of OPRM1-OPRD1 heterodimerization: luminescence-based cell-based high throughput dose response assay to identify agonists of 5-hydroxytryptamine (serotonin) 5A receptor (HTR5A). [Related pubchem assays (depositor defined):AID504326, AID504355, AID504692, AID504904, AID504905]; format: functional
Chain of 5-hydroxytryptamine receptor 5A (P47898 whole entry): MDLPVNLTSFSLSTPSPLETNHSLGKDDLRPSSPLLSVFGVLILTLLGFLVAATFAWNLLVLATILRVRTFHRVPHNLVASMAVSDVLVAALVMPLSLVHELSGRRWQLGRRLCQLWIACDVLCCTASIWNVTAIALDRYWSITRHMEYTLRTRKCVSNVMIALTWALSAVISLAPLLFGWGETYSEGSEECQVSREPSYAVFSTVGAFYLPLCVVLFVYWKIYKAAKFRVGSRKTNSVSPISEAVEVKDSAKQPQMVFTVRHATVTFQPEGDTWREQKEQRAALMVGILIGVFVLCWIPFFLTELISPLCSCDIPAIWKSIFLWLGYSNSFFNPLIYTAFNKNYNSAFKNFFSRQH

Cytochrome P450 3A4 = Cytochrome P450 3A4 (Homo sapiens, UniProt P08684);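 note: CYP3A4 tested as one member of a cytochrome P450 panel screen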
Chain of Cytochrome P450 3A4 (P08684 whole entry): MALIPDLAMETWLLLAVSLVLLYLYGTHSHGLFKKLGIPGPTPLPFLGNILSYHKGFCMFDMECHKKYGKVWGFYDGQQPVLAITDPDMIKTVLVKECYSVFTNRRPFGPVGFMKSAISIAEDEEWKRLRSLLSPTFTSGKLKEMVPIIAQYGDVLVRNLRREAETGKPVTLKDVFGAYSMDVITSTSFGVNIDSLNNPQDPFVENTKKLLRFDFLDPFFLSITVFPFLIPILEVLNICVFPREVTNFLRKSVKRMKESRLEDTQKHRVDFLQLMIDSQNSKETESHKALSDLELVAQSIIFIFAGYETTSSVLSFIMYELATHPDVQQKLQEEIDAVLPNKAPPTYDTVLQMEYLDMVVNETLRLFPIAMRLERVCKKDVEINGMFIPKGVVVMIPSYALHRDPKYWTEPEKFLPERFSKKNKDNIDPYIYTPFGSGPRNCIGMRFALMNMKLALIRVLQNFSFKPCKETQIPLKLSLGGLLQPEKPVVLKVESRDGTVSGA

Cytochrome P450 1A2 = target: T1, Cytochrome P450 1A2 (Homo sapiens, UniProt P05177);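 note: PubChem cytochrome P450 panel assay, CYP1A2 panel member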
T1 sequence (P05177 whole entry): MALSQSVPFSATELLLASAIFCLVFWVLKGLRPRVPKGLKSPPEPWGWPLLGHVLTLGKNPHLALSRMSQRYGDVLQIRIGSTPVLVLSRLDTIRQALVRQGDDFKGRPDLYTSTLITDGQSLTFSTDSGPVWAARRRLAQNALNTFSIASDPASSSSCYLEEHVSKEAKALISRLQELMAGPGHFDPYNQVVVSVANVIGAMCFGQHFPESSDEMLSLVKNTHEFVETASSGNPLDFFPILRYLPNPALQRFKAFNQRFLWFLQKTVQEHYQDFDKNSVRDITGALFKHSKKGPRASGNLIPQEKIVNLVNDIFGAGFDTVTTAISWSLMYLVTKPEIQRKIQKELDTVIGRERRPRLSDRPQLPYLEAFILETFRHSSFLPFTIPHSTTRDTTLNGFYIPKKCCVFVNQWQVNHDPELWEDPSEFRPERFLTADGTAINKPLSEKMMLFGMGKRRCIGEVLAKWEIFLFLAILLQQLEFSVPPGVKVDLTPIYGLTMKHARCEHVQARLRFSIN

Chain of Cytochrome P450 2D6 (P10635 whole entry): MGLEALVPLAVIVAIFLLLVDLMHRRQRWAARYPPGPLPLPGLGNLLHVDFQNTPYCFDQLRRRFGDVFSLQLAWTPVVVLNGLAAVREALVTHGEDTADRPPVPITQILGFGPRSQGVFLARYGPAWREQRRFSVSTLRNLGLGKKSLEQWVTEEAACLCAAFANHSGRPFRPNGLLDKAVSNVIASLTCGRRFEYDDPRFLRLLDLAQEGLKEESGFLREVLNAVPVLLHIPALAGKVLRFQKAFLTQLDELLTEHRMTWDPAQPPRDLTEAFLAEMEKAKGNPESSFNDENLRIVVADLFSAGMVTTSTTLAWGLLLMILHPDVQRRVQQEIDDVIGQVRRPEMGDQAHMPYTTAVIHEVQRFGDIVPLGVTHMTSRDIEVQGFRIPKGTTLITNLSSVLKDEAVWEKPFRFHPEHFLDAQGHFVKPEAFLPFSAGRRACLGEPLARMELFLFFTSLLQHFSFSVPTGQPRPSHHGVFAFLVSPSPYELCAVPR

| Structure (SMILES) | EC50 [1] | EC50 (Mu-type opioid receptor) | EC50 [2] | AC50 (Escherichia coli) | also measured |
| --- | --- | --- | --- | --- | --- |
| CCOc1cc(CNCCO)c(Cl)cc1OCC(=O)NCCc1ccccc1 |  |  |  |  | AC50 (Cytochrome P450 2D6): inconclusive |
| Cc1noc(C)c1COC(=O)c1cccc(S(=O)(=O)N2CCOCC2)c1 |  |  |  | 44.7 µM (active) |  |
| O=C(COC(=O)/C=C/c1ccc(F)cc1)Nc1nnc(-c2ccccc2)o1 |  |  |  | 23.2 µM (active) |  |
| COC(=O)c1cc(OC)c(OC)cc1N=C(S)N1CCN(C)CC1 |  |  |  |  | AC50 (Cytochrome P450 1A2): 11.2 µM (inconclusive); AC50 (Cytochrome P450 3A4): 14.1 µM (inconclusive); AC50 (Cytochrome P450 2D6): inconclusive |
| COc1cc2c3c(c1OC)Oc1ccc(cc1)C[C@H]1c4c(cc(OC)c(OC)c4Oc4ccc(cc4)C[C@@H]3N(C)CC2)CCN1C |  |  |  | 25.2 µM (active) |  |
| CN(C)C(CNC(=O)c1ccc(Br)cc1)c1ccco1 (configuration not stated) | > 92.5 µM (inactive) | > 92.5 µM (inactive) | > 92.5 µM (inactive) |  |  |

Further lines, with some results ahead:

| EC50 [1] | EC50 (Mu-type opioid receptor) | EC50 [2] | Structure (SMILES) | AC50 (Escherichia coli) | also measured |
| --- | --- | --- | --- | --- | --- |
| > 92.5 µM (inactive) | > 92.5 µM (inactive) | > 92.5 µM (inactive) | Cc1cccc(NC(=S)NC(=O)CCc2ccccc2)c1 |  | AC50 (Cytochrome P450 3A4): 25.1 µM (inconclusive) |
| 11.7 µM (inactive) | > 92.4 µM (inactive) | > 92.4 µM (inactive) | COC(=O)C1=C(C)N(CCCC(=O)O)C(=O)NC1c1ccccc1OS(=O)(=O)c1ccc([N+](=O)[O-])cc1 (configuration not stated) |  |  |
